Test results from US20250304566A1, “CRYSTALLINE FORMS OF (5S)-3-[3-(3-CHLORO-2-FLUOROPHENOXY)-6-METHYLPYRIDAZIN-4-YL]-5-(2-CHLORO-4-METHYLBENZYL)-5,6-DIHYDRO-4H-1,2,4-OXADIAZINE” (priority 2022, published 2025).
Values belong to the molecule of their own block, whether it stands above or below them.

Experiments:
Format in all cases: physicochemical
[1] = Measurement of Log P values by HPLC on reversed phase columns (EEC directive 79/831 Annex V.A8); settings: reversed phase HPLC column, acidic range, 0.1% formic acid in water and acetonitrile
Description: Measurement of Log P values Measurement of Log P values as provided herein was performed according to EEC directive 79/831 Annex V.A8 by HPLC (High Performance Liquid Chromatography) on reversed phase columns with method determined by measurement of LC-UV, in an acidic range, with 0.1% formic acid in water and acetonitrile as eluent (linear gradient from 10% acetonitrile to 95% acetonitrile). Calibration was done with straight-chain alkan2-ones (with 3 to 16 carbon atoms) with known Log P values (measurement of Log P values using retention times with linear interpolation between successive alkanones). Lambda-max-values were determined using UV-spectra from 200 nm to 400 nm and the peak values of the chromatographic signals

[2] = Transition temperature between polymorphic forms A and B (temperature-depending XRPD); settings: for phase change temperature: temperature-depending XRPD
Description: To obtain crystals of polymorphic form A, a temperature-depending X-ray powder diffraction (XRPD) experiment was performed, in which recrystallization was allowed at different temperatures.

[3] = Slurry experiment (polymorph obtained, XRPD); settings: for Mod. obtained: 8 days
Description: Compound of formula (I) was suspended in the respective solvent and stirred at 0° C., 40° C. (Mya4 stirrer station at 250 u/min) and 80° C. After three to eight days, an additional amount of solvent was added to the suspensions. In two experiments additional substance were added after four days. After eight days the suspensions were dried at ambient conditions.
The obtained crystals were isolated and analyzed by X-ray powder diffraction (XRPD) spectrometry, DSC and TGA.

chromatographic logP [1]: 3.88
SMILES: Cc1ccc(C[C@H]2CON=C(c3cc(C)nnc3Oc3cccc(Cl)c3F)N2)c(Cl)c1 [compound of formula (I), (5S)-3-[3-(3-chloro-2-fluorophenoxy)-6-methylpyridazin-4-yl]-5-(2-chloro-4-methylbenzyl)-5,6-dihydro-4H-1,2,4-oxadiazine]

phase change temperature ([2]; on cooling): 40 °C
phase change temperature ([2]; on heating): 60 °C
SMILES: Cc1ccc(C[C@H]2CON=C(c3cc(C)nnc3Oc3cccc(Cl)c3F)N2)c(Cl)c1 [polymorphic form A, (5S)-3-[3-(3-chloro-2-fluorophenoxy)-6-methylpyridazin-4-yl]-5-(2-chloro-4-methylbenzyl)-5,6-dihydro-4H-1,2,4-oxadiazine]
thermodynamic stability ([2]; at lower temperatures): very fast transition to polymorphic form B

thermodynamic stability ([2]; below the transition temperatures (49° C. to 66° C.)): thermodynamically stable polymorph
Mod. obtained ([3]; Exp. No. 1: Mod. B used, CH3CN, 0 °C): Mod. B
Mod. obtained ([3]; Exp. No. 2: Mod. B used, CH3CN, 40 °C): Mod. B
Mod. obtained ([3]; Exp. No. 3: Mod. B used, CH3CN/water, 80 °C): Mod. B
Mod. obtained ([3]; Exp. No. 4: Mod. B used, Ethanol/water (1:1), 0 °C): Mod. B
Mod. obtained ([3]; Exp. No. 5: Mod. B used, Ethanol/water (1:1), 40 °C): Mod. B
Mod. obtained ([3]; Exp. No. 6: Mod. B used, Ethanol/water (1:1), 80 °C): Mod. B
SMILES: Cc1ccc(C[C@H]2CON=C(c3cc(C)nnc3Oc3cccc(Cl)c3F)N2)c(Cl)c1 [polymorphic form B, (5S)-3-[3-(3-chloro-2-fluorophenoxy)-6-methylpyridazin-4-yl]-5-(2-chloro-4-methylbenzyl)-5,6-dihydro-4H-1,2,4-oxadiazine]
stability in slurry experiments: recrystallization events ([3]; above the transition temperature range over an extended period of time): No recrystallization events were observed
